According to patent US4072683A, “3,4-Dihydrocarbostyril derivatives” (Otsuka Pharmaceutical Co., Ltd., priority 1974, dated 1978):
Read-outs that look alike come from different tables or passages of the source.

Columns and labels:
Acute toxicity (LD50) = conditions: in vivo
β-adrenergic nerves = assay: Antagonistic activity against isoproterenol (β-adrenergic nerves blocking activity), anesthetized dogs; format: in vivo, Mongrel dogs; conditions: Canis lupus familiaris, iv, isoproterenol 0.3 μg/kg, dog; for inhibition at 0.0001 mg/kg: 0.1 μg/kg i.v.; for inhibition at 0.001 mg/kg: 1.0 μg/kg i.v.; for inhibition at 0.01 mg/kg: 10 μg/kg i.v.; for inhibition at 0.1 mg/kg: 100 μg/kg i.v.
Procedure: For example, the antagonistic activity against isoproterenol (as an indication of β-adrenergic nerves blocking activity) of the 3,4-dihydrocarbostyril derivatives of the present invention was measured according to a method as described in R. D. Robson and H. R. Kaplan, "J. Pharmacol. Exp. Therap.," Vol. 175, page 157 (1970) as follows:
Mongrel dogs of both sexes weighing 9.7 - 19.0 kg were anesthetized with pentobarbital-Na (30 mg/kg, i.v.) and fixed on their back. Anesthesia was maintained by continuous intravenous infusion of pentobarbital-Na at a rate of 4 mg/kg/hour.
Arterial blood pressure was measured from the left femoral artery with a pressure transducer (Nihon Kohden, RP-3). The left femoral vein was cannulated for i.v. injection of drugs. Heart rate was measured with a tachometer (San-ei, type 2130) treggered by the R wave of ECG (Lead II). Blood pressure and heart rate were simultaneously recorded on an ink-writing recorder (San-ei, type 145).
Test drugs were cumulatively injected at intervals of 10 minutes after reproducibility test on the positive chronotropic and hypotensive actions of a submaximal dose of 0.3 μg/kg of isoproterenol. At the time when responses of blood pressure and heart rate to these test drugs were stabilized, at about 3 minutes after injection, isoproterenol 0.3 μg/kg was injected again. Their antagonistic activities were determined from difference between responses to isoproterenol before and after administration of the test drugs and expressed as % inhibition.

[1] = Hypotensive action, arterial blood pressure in anesthetized dogs; format: in vivo, Mongrel dogs; conditions: cumulative, anesthetized dog
Procedure: Mongrel dogs of both sexes weighing 9.7 - 19.0 kg were anesthetized with pentobarbital-Na (30 mg/kg, i.v.) and fixed on their back. Anesthesia was maintained by continuous intravenous infusion of pentobarbital-Na at a rate of 4 mg/kg/hour. After the vinyl catheter was inserted in the left femoral vein, heparin sodium, 1000 U/kg, was intravenously injected in order to prevent blood coagulation. Arterial blood pressure was measured from the left femoral artery with a pressure transducer (Nihon Kohden, RP-3). Test drugs were dissolved in 0.9% physiological saline solution and then intravenously administered with the cumulative method at intervals of 5 - 10 minutes.

[2] = blood pressure, read-out: Antagonistic Activity against Isoproterenol (% Inhibition of changes in BP)
[3] = heart rate, read-out: Antagonistic Activity against Isoproterenol (% Inhibition of changes in HR)

| Structure (SMILES) | LD50 (Acute toxicity (LD50); iv) | LD50 (Acute toxicity (LD50); po) | inhibition at 0.0001 mg/kg (β-adrenergic nerves; [2]) | inhibition at 0.001 mg/kg (β-adrenergic nerves; [2]) | inhibition at 0.01 mg/kg (β-adrenergic nerves; [2]) | inhibition at 0.1 mg/kg (β-adrenergic nerves; [2]) | inhibition at 0.0001 mg/kg (β-adrenergic nerves; [3]) | inhibition at 0.01 mg/kg (β-adrenergic nerves; [3]) | inhibition at 0.1 mg/kg (β-adrenergic nerves; [3]) | Hypotensive Action (Blood Pressure mmHg) ([1]; 0.1 μg/kg i.v.) | Hypotensive Action (Blood Pressure mmHg) ([1]; 1.0 μg/kg i.v.) | Hypotensive Action (Blood Pressure mmHg) ([1]; 10 μg/kg i.v.) | Hypotensive Action (Blood Pressure mmHg) ([1]; 100 μg/kg i.v.) | further results |
| --- | --- | --- | --- | --- | --- | --- | --- | --- | --- | --- | --- | --- | --- | --- |
| CC(C)(C)NCC(O)COc1ccc(O)c2c1CCC(=O)N2 (centres unmarked) [drawing 18] | 94 mg/kg | 1380 mg/kg | – | – | – | – | – | – | – | – | – | – | – | – |
| CC(C)(C)NCC(O)COc1ccc(OCc2ccccc2)c2c1CCC(=O)N2 (centres unmarked) [drawing 14] | – | – | 20% | 10.9% | 12.6% | 8.4% | 13.5% | 21.4% | 65.4% | – | – | – | – | inhibition at 0.001 mg/kg (β-adrenergic nerves; [3]): 13.5% |
| CC(C)(C)NCC(O)COc1ccc(O)c2c1CCC(=O)N2 (centres unmarked) [drawing 12] | – | – | 18.4% | 64.6% | 94.8% | 100% | 5.1% | 97.5% | 100% | – | – | – | – | inhibition at 0.001 mg/kg (β-adrenergic nerves; [3]): 44.5% |
| CC(C)(C)NCC(O)COc1ccc(OCc2ccccc2)c2c1CCC(=O)N2 (centres unmarked) [drawing 20] | 80 mg/kg | 1150 mg/kg | – | – | – | – | – | – | – | – | – | – | – | – |
| COc1ccc(OCC(O)CNC(C)(C)C)c2c1NC(=O)CC2 (centres unmarked) [drawing 13] | – | – | 40.6% | 54.4% | 77.1% | 82.2% | 7% | 39.8% | 80.5% | – | – | – | – | – |
| CC(C)(C)NCC(O)COc1ccc(O)c2c1CCC(=O)N2 (centres unmarked) [drawing 15] | – | – | – | – | – | – | – | – | – | -1.6 mmHg | -5.4 mmHg | -11.8 mmHg | -30.6 mmHg | – |
| CC(C)(C)NCC(O)COc1ccc(OCc2ccccc2)c2c1CCC(=O)N2 (centres unmarked) [drawing 17] | – | – | – | – | – | – | – | – | – | -1.0 mmHg | -4.5 mmHg | -10.5 mmHg | -16.0 mmHg | – |
| COc1ccc(OCC(O)CNC(C)(C)C)c2c1NC(=O)CC2 (centres unmarked) [drawing 19] | 83 mg/kg | 1210 mg/kg | – | – | – | – | – | – | – | – | – | – | – | – |
| COc1ccc(OCC(O)CNC(C)(C)C)c2c1NC(=O)CC2 (centres unmarked) [drawing 16] | – | – | – | – | – | – | – | – | – | 0.0 mmHg | -2.0 mmHg | -3.5 mmHg | -5.5 mmHg | – |
